{"source": "patent US20220281930A1", "about": "“COMPOSITIONS AND METHODS FOR THE TREATMENT OF PATHOLOGICAL PAIN AND ITCH” (DUKE UNIVERSITY, priority 2019, published 2022)", "key": {"EGABA": {"tested_on": "EGABA", "experiment": "Perforated patch EGABA in SCDH lamina-II neurons of treated mice", "type": "in vivo, mouse", "details": "slices of PSNL juvenile mice treated with KP 30 mg/kg"}, "ß-catenin (ß-cat)": {"tested_on": "ß-catenin (ß-cat)", "experiment": "Phosphoproteomics in rat primary cortical neurons, ß-cat", "type": "cell-based", "details": "1 μM KP", "experimental": "Cultured rat primary cortical neurons were treated with either vehicle DMSO (0.1%) or 1 μM KP for 1 h/24 h. Cells were lysed in non-detergent-containing buffer (Tris.Cl pH8 50 mM, NaCl 150 mM, 0.5% Phosphatase Inhibitor (Pierce #88667) and Protease Inhibitor (Roche #11836153001)). 500 μL was removed and solid urea was added to a final concentration of 8M. Samples were sonicated for further solubilization. After clearing of insoluble material by centrifugation, protein concentration was measured by Bradford assay. 250 μg of total protein was removed from each sample and solubilization buffer was added to normalize all samples to 0.93 μg/μL protein. Samples were then spiked with bovine alpha-casein to 30 fmol/μg of total protein. Samples were reduced with 10 mM DTT at 32° C. for 45 min and then alkylated with 20 mM iodoacetamide at room temperature for 30 min. […]\nTiO2 Enrichment. […] After cleanup using a C18 STAGE tip, and resuspension in 2% acetonitrile, 0.1% TFA, 10 mM citric acid samples were quantified.\nQuantitative analysis of Phosphopeptide Enriched Samples. Quantitative LC-MS/MS was performed in singlicate (4 uL=33% of the total sample each injection) for phosphopeptide-enriched samples using a nanoAcquity UPLC system (Waters Corp) coupled to a Thermo QExactive Plus high resolution accurate mass tandem mass spectrometer (Thermo) via a nanoelectrospray ionization source. […]"}, "KCC2": {"tested_on": "KCC2", "experiment": "Composite score from primary and secondary screening", "type": "cell-based, mouse", "details": "Natural Compounds", "experimental": "The primary screen encompassed three levels of LUC measurements. The first level of screening yielded a total of 137 compounds with cut-off RLU>125% LUC activity. These 137 compounds were subject to second round of screening, which was carried out in duplicate independent assays to yield the top 103 compounds sorted for highest RLU. The 103 compounds were then subjected to a third round of screening carried out in duplicate independent assays to yield the top 40 compounds which were again ranked. The best 22 of these 40 compounds (ranked for highest RLU activity) were subjected to secondary screening: Cultured neurons were treated with the 22 compounds; RT-qPCR and Clomeleon imaging methodologies (Yeo et al., 2009, J Neurosci 29:14652-14662) were used to determine effects of compounds on KCC2 mRNA expression and [Cl—]i, respectively. Each compound was ranked based on composite scores from primary and secondary screening.\nTo identify KCC2 gene expression enhancing compounds, cultured primary cortical neurons were cultured from KCC2-luciferase(LUC)-knockin (KCC2-LUCki) mice (Liedtke et al., 2013, Small 9:1066-1075; Yeo et al., 2013, Proc Natl Acad Sci USA 110:4315-4320) and used LUC metrics as readout for activity of the proximal KCC2 promoter (2.5 kB (Yeo et al., 2009, J Neurosci 29:14652-14662)), which drives LUC in this mouse transgenic line. A Z′ factor of 0.94 was obtained. This strategy will not select for long-range enhancers of KCC2 gene expression that act outside the 2.5 kB core KCC2 promoter. 1057 compounds, contained in two NCI libraries (FIG. 1), related to inhibition of growth of malignantly transformed cells were screened. Iterative screening followed by measurements of KCC2 mRNA (RT-qPCR) and intracellular chloride ([Cl—]i), using clomeleon chloride indicator protein (Kuner and Augustine, 2000, Neuron 27:447-459; Yeo et al., 2009, J Neurosci 29:14652-14662), led to decreasing numbers of confirmed and re-confirmed hits, and 4 “winner” compounds were selected (FIG. 1 and Table 3)."}}, "data": [{"smiles": "O=C1Cc2c([nH]c3ccc(Br)cc23)-c2ccccc2N1", "note": "[kenpaullone, 9-bromo-7,12-dihydro-indolo [3,2-d] [1]benzazepin-6(5H)-one]", "values": [{"measurement": "EGABA", "setting": "EGABA", "value": "significant hyperpolarization"}, {"measurement": "differential phosphorylation of ß-cat", "setting": "ß-catenin (ß-cat)", "value": "not significantly differentially phosphorylated"}, {"measurement": "Top 2 hits", "setting": "KCC2", "value": "winner"}, {"measurement": "Total Score", "setting": "KCC2; sum of the three scores", "value": 6}]}]}
